From ChEMBL document CHEMBL5214920, “Emerging impact of triazoles as anti-tubercular agent” (Eur J Med Chem, 2022)
Converted amounts (≈) assume the structure as drawn.

Test system: Mycobacterium tuberculosis
Assay: Antitubercular activity against multi-drug-resistant Mycobacterium tuberculosis assessed as bacterial growth inhibition measured after 7 days by direct susceptibility assay
Format: functional
Details: 168 h, time 7 day

Question: `COc1c(N2CCNCC2)c(F)cc2c(=O)c(C(=O)O)cn(C3CC3)c12` was tested. Which MIC did it give?
Answer: 2 µg/mL (≈ 5.53 µM)

Question: How did the MIC turn out when `O=C(O)c1cn(C2CC2)c2cc(N3CCN(Cc4cn(CCN5C(=O)Cc6ccccc65)nn4)CC3)c(F)cc2c1=O` was run?
Answer: 0.25 µg/mL (≈ 0.437 µM)

Question: How did the MIC turn out when `CO/N=C1/C(=O)C(CCOCCOCCOCCn2cc(CN3C(=O)/C(=N/OC)c4cc(F)ccc43)nn2)c2ccccc21` (configuration not stated) was run?
Answer: 64 µg/mL (≈ 105 µM)

Question: Which MIC does the source give for `O=C(O)c1cn(C2CC2)c2cc(N3CCNCC3)c(F)cc2c1=O` [CIPROFLOXACIN] here?
Answer: 4 µg/mL (≈ 12.1 µM)

Question: With `NNC(=O)c1ccncc1` [ISONIAZID] as the compound, how does the MIC read?
Answer: 512 µg/mL (≈ 3730 µM)

Question: How did the MIC turn out when `CO[C@H]1/C=C/O[C@@]2(C)Oc3c(C)c(O)c4c(O)c(c(/C=N/N5CCN(C)CC5)c(O)c4c3C2=O)NC(=O)/C(C)=C\C=C\[C@H](C)[C@H](O)[C@@H](C)[C@@H](O)[C@@H](C)[C@H](OC(C)=O)[C@@H]1C` [RIFAMPIN] was run?
Answer: 64 µg/mL (≈ 77.8 µM)

Test system: Mycobacterium tuberculosis
Assay: Potency index, ratio of isoniazid MIC to test compound MIC for antitubercular activity against multi-drug-resistant Mycobacterium tuberculosis
Format: functional
Details: not given

Question: `CO/N=C1/C(=O)C(CCOCCOCCOCCn2cc(CN3C(=O)/C(=N/OC)c4cc(F)ccc43)nn2)c2ccccc21` (configuration not stated) was tested. Which Ratio did it give?
Answer: 8
